The values below come from PMC7413308 (ARKIVOC : free online journal of organic chemistry, 2018).

A short description of data set [1]: In vitro microsomal stability of analogs. The conditions noted are these: for half-life / remaining at 2 h / remaining at 1 h: human, liver microsomes; for remaining at 2 h / remaining at 1 h: Microsomal stability (HLM) % remaining. The data set is classed as in vitro ADME, human.
A short description of data set [2]: In vitro microsomal stability of analogs. The note with it: for half-life / remaining at 2 h / remaining at 1 h: mouse, liver microsomes; for remaining at 2 h / remaining at 1 h: Microsomal stability (MLM) % remaining. In kind it is in vitro ADME, mouse.
The test system of data set [3] is HEK293 (kidney) cell line. As to the kind of experiment: In vitro cytotoxicity, cell viability. The note with it: 48 h incubation, Cell-Titer Glo cell viability. The data set is classed as cell-based.
The subject of data set [4] is HEPG2 (liver) cell line. In words: In vitro cytotoxicity, cell viability. The note with it: 48 h incubation, Cell-Titer Glo cell viability. The data set is classed as cell-based.
Data set [5] relates to mice. In words: Sensorimotor coordination on rotating rod after oral gavage. The note with it: oral gavage 40 mg/kg, rotating rod max 3 minutes, three time-points. The data set is classed as in vivo.
Setting [6] is: footnote d: assessed at 1-hour incubation time.
The mark [7] stands for this setting: footnote a: compound not detected after 10 minutes.

The structures appear in SMILES notation. Values joined by “and” are separate entries in the source; they are usually repeats but may differ in a detail not shown here. Equal entries are not always repeated.

For the molecule `C#Cc1ccc2c(c1)C(c1ccccc1F)=N[C@@H](C)c1c(-c3nc(C(C)C)no3)ncn1-2` [9c, (S)-5-(8-Ethynyl-6-(2-fluorophenyl)-4-methyl-4H-benzo[f]imidazo[1,5-a][1,4]diazepin-3-yl)-3-isopropyl-1,2,4-oxadiazole], the figures for the half-life in data set [1] and in data set [2] were 43.1 ± 32 h and 8.33 ± 1.82 h, respectively. For the same molecule, the figures for the amount remaining at 2 h in data set [1] (after 2 hr) and in data set [2] (after 2 hr) were 91 ± 0.3% and 79 ± 0.5%, respectively. For the same molecule, the “HEK293 LD50” value in data set [3] was found to be 32.5 ± 7.6 µM. Moreover, in data set [4], the “HEPG2 LD50” value amounted to 21.7 ± 1.8 µM. In addition, in data set [5], the “Effect on sensorimotor coordination (motor impairment, sedation/ataxia)” value (from here on “Effect … (motor impairment, sedation/ataxia)”) is “exhibited no sensorimotor impairment”.

With `C#Cc1ccc2c(c1)C(c1ccccc1F)=N[C@@H](C)c1c(C(=O)NC(C)C)ncn1-2` [8d, (S)-8-Ethynyl-6-(2-fluorophenyl)-N-isopropyl-4-methyl-4H-benzo[f]imidazo[1,5-a][1,4]diazepine-3-carboxa-mide], in data set [1] (after 2 hr), the “Microsomal stability (HLM) % remaining” value is given as 38.0 ± 0.5% and the “Microsomal stability (HLM) Half-life” value came out at 107 ± 10 min. Besides, the “Microsomal stability (MLM) % remaining” value in data set [2] (after 2 hr) worked out at 75.0 ± 0.3%. In addition, the “HEK293 LD50” value in data set [3] came to 80.2 ± 11.1 µM. In addition, the “HEPG2 LD50” value in data set [4] was found to be 56.9 ± 4.8 µM. The “Effect … (motor impairment, sedation/ataxia)” value in data set [5] is on record as “did not show any motor impairment”.

As for `C#Cc1ccc2c(c1)C(c1ccccc1F)=N[C@@H](C)c1c(C(=O)OC)ncn1-2` [5a, (S)-Methyl-8-ethynyl-6-(2-fluorophenyl)-4-methyl-4H-benzo[f]imidazo[1,5-a][1,4]diazepine-3-carboxylate], the half-life in data set [1] was determined as 1.98 ± 0.35 h; in data set [2], 3.6 ± 0.467 h. The molecule also had a share remaining at 1 h in data set [1] (setting [6]) of 43 ± 0.4%. The molecule also showed a share remaining at 2 h in data set [2] (after 2 hr) of 62 ± 0.5%. Further, the “HEK293 LD50” value in data set [3] was 68.2 ± 4.3 µM.

For the molecule `C#Cc1ccc2c(c1)C(c1ccccc1F)=N[C@@H](C)c1c(-c3nc(CC)no3)ncn1-2` [9b, (S)-3-Ethyl-5-(8-ethynyl-6-(2-fluorophenyl)-4-methyl-4H-benzo[f]imidazo[1,5-a][1,4]diazepin-3-yl)-1,2,4-oxadiazole], the half-life was found to be 9.38 ± 2.05 h in data set [1] and 3.55 ± 0.283 h in data set [2]. Moreover, the results for the share remaining at 2 h in data set [1] (after 2 hr) and in data set [2] (after 2 hr) were 80 ± 0.4% and 63 ± 0.3%, respectively. Besides, in data set [3], the “HEK293 LD50” value was determined as 46.9 ± 6.6 µM. Further, in data set [4], the “HEPG2 LD50” value came out at 35.1 ± 3.7 µM. Moreover, the “Effect … (motor impairment, sedation/ataxia)” value in data set [5] is recorded as “exhibited no sensorimotor impairment”.

As to `C#Cc1ccc2c(c1)C(c1ccccc1F)=N[C@@H](C)c1c(C(=O)OCC(F)(F)F)ncn1-2` [5f, (S)-2,2,2-Trifluoroethyl-8-ethynyl-6-(2-fluorophenyl)-4-methyl-4H-benzo[f]imidazo[1,5-a][1,4]diazepine-3-carboxylate], the half-life in data set [1] and in data set [2] was under 0.0833 h throughout. The “HEK293 LD50” value in data set [3] was 138 µM and 138.1 ± 31.8 µM. Besides, the “HEPG2 LD50” value in data set [4] is over 400 µM.

Take `C#Cc1ccc2c(c1)C(c1ccccc1F)=N[C@@H](C)c1c(C(=O)SCC)ncn1-2` [compound 7, (S)-S-Ethyl-8-ethynyl-6-(2-fluorophenyl)-4-methyl-4H-benzo[f]imidazo[1,5-a][1,4]diazepine-3-carbothioate]: in data set [1] (after 2 hr), the “Microsomal stability (HLM) % remaining” value is on record as 28.0 ± 0.3% and the “Microsomal stability (HLM) Half-life” value came to 101 ± 19 min. Further, in data set [2] (after 2 hr), the “Microsomal stability (MLM) % remaining” value is 9.0 ± 0.5% and the “Microsomal stability (MLM) Half-life” value came to 46 ± 6 min. In addition, the “HEK293 LD50” value in data set [3] was found to be 20.5 ± 4.7 µM. For the same molecule, the “HEPG2 LD50” value in data set [4] came to 30.2 ± 9.7 µM.

Regarding `CCOC(=O)c1ncn2c1[C@H](C)N=C(c1ccccc1F)c1cc(C3CC3)ccc1-2` [compound 3, (S)-Ethyl-8-cyclopropyl-6-(2-fluorophenyl)-4-methyl-4H-benzo[f]imidazo[1,5-a][1,4]diazepine-3-carboxylate], the values for the half-life in data set [1] and in data set [2] were under 0.0833 h and 0.767 ± 0.05 h, respectively. Besides, in data set [2] (after 2 hr), the fraction remaining at 2 h was found to be 16 ± 0.4%. The “HEK293 LD50” value in data set [3] is 58.0 ± 6.0 µM. The “HEPG2 LD50” value in data set [4] amounted to 87.0 ± 6.6 µM.

In the case of `C#Cc1ccc2c(c1)C(c1ccccc1F)=N[C@@H](C)c1c(C(=O)NC)ncn1-2` [8a, (S)-8-Ethynyl-6-(2-fluorophenyl)-N,4-dimethyl-4H-benzo[f]imidazo[1,5-a][1,4]diazepine-3-carboxamide], the amount remaining at 2 h is 92 ± 0.3% in data set [1] (after 2 hr) and 86 ± 0.2% in data set [2] (after 2 hr).

`C#Cc1ccc2c(c1)C(c1ccccc1F)=N[C@@H](C)c1c(C#N)ncn1-2` [compound 10, (S)-8-Ethynyl-6-(2-fluorophenyl)-4-methyl-4H-benzo[f]imidazo[1,5-a][1,4]diazepine-3-carbonitrile]: the results for the half-life in data set [1] and in data set [2] were 0.683 ± 0.0833 h and 0.967 ± 0.1 h, respectively. The amount remaining at 2 h stood at 9 ± 0.3% in data set [1] (after 2 hr) and 16% in data set [2] (after 2 hr). The “Microsomal stability (MLM) % remaining” value in data set [2] (after 2 hr) is given as 17.0 ± 0.6%. Further, in data set [3], the “HEK293 LD50” value amounted to 81.6 ± 6.7 µM. Moreover, the “HEPG2 LD50” value in data set [4] was found to be 57.1 ± 5.6 µM.

With `C#Cc1ccc2c(c1)C(c1ccccc1F)=N[C@@H](C)c1c(C(=O)OCCC)ncn1-2` [5b, (S)-Propyl-8-ethynyl-6-(2-fluorophenyl)-4-methyl-4H-benzo[f]imidazo[1,5-a][1,4]diazepine-3-carboxylate], the half-life in data set [1] was under 0.0833 h; in data set [2], 0.4 h. In data set [2] (setting [6]), this molecule came in with an amount remaining at 1 h of 12 ± 0.2%. Moreover, the “HEK293 LD50” value in data set [3] stood at 53.2 ± 4.4 µM. Also, the “HEPG2 LD50” value in data set [4] was determined as 56.3 ± 4.0 µM.

With `C#Cc1ccc2c(c1)C(c1ccccc1F)=N[C@@H](C)c1c(C(=O)OC(C)(C)CC)ncn1-2` [5e, (S)-tert-Pentyl-8-ethynyl-6-(2-fluorophenyl)-4-methyl-4H-benzo[f]imidazo[1,5-a][1,4]diazepine-3-carboxylate], the “HEK293 LD50” value in data set [3] is 17.2 ± 1.6 µM. Also, the “HEPG2 LD50” value in data set [4] amounted to 17.1 ± 1.4 µM.

In the case of `C#Cc1ccc2c(c1)C(c1ccccc1F)=N[C@@H](C)c1c(C(=O)OC3CC3)ncn1-2` [5g, (S)-Cyclopropyl-8-ethynyl-6-(2-fluorophenyl)-4-methyl-4H-benzo[f]imidazo[1,5-a][1,4]diazepine-3-carboxyl-ate], the “% remaining in HLM” value in data set [1] (after 10, 20, and 30 minutes in HLM) was “less than 5%”. Besides, in data set [1] (setting [7]), the “Microsomal stability (HLM) % remaining” value is reported as < 5.0^a % and the “Microsomal stability (HLM) Half-life” value is recorded as < 5^a min. Also, in data set [2] (setting [6]), the “Microsomal stability (MLM) % remaining” value was 11.0 ± 0.2^d % and the “Microsomal stability (MLM) Half-life” value is 19 ± 2^d min. In addition, the “HEK293 LD50” value in data set [3] was found to be 35.8 ± 3.3 µM. Besides, the “HEPG2 LD50” value in data set [4] worked out at 85.1 ± 3.8 µM.

As for `C#Cc1ccc2c(c1)C(c1ccccc1F)=N[C@@H](C)c1c(C(=O)OC(C)C)ncn1-2` [5c, (S)-Isopropyl-8-ethynyl-6-(2-fluorophenyl)-4-methyl-4H-benzo[f]imidazo[1,5-a][1,4]diazepine-3-carboxylate], the half-life in data set [1] was found to be 0.95 ± 0.0333 h; in data set [2] it was 3.78 ± 0.267 h. Besides, the fraction remaining at 1 h came to 47 ± 0.2% in data set [1] (setting [6]) and 83 ± 0.1% in data set [2] (setting [6]). Moreover, the “HEK293 LD50” value in data set [3] is 48.9 ± 4.4 µM. Further, in data set [4], the “HEPG2 LD50” value is 39.9 ± 2.8 µM.

For the molecule `COC(=O)c1ncn2c1[C@H](C)N=C(c1ccccc1F)c1cc(Br)ccc1-2` [4a, (S)-Methyl-8-bromo-6-(2-fluorophenyl)-4-methyl-4H-benzo[f]imidazo[1,5-a][1,4]diazepine-3-carboxylate], the half-life came out at 0.167 ± 0.0167 h in data set [1] and 1.93 ± 0.217 h in data set [2]. The amount remaining at 1 h in data set [1] (setting [6]) was 2 ± 0.3%. For the same molecule, in data set [2] (after 2 hr), the fraction remaining at 2 h is 41 ± 0.6%. Also, in data set [3], the “HEK293 LD50” value came to 98.5 ± 7.9 µM.

For the molecule `C#Cc1ccc2c(c1)C(c1ccccc1F)=N[C@@H](C)c1c(C(=O)O)ncn1-2` [compound 6, (S)-8-Ethynyl-6-(2-fluorophenyl)-4-methyl-4H-benzo[f]imidazo[1,5-a][1,4]diazepine-3-carboxylic acid], the half-life was determined as 5.97 ± 0.933 h in data set [1] and 2.32 ± 0.183 h in data set [2]. Also, the share remaining at 2 h in data set [1] (after 2 hr) was found to be 74 ± 0.4%. Moreover, the fraction remaining at 1 h in data set [2] (setting [6]) was 54 ± 0.3%. Also, the “HEK293 LD50” value in data set [3] is over 400 µM. Also, the “HEPG2 LD50” value in data set [4] was over 400 µM.

Consider `C#Cc1ccc2c(c1)C(c1ccccc1F)=N[C@@H](C)c1c(C(=O)OC(C)(C)C)ncn1-2` [5d, (S)-tert-Butyl-8-ethynyl-6-(2-fluorophenyl)-4-methyl-4H-benzo[f]imidazo[1,5-a][1,4]diazepine-3-carboxylate], for which the figures for the half-life in data set [1] and in data set [2] were 8.57 ± 1.92 h and 3.27 ± 0.333 h, respectively. In addition, the share remaining at 1 h in data set [1] (setting [6]) worked out at 89 ± 0.2%; in data set [2] (setting [6]) it was 78 ± 0.2%. Also, the “HEPG2 LD50” value in data set [4] was 21.4 ± 1.9 µM.

On to `C#Cc1ccc2c(c1)C(c1ccccc1F)=N[C@@H](C)c1c(C(=O)NCC)ncn1-2` [8b, (S)-N-Ethyl-8-ethynyl-6-(2-fluorophenyl)-4-methyl-4H-benzo[f]imidazo[1,5-a][1,4]diazepine-3-carboxamide], for which the half-life in data set [1] came out at 33 ± 0.833 h; in data set [2], 32.7 ± 0.767 h. For the same molecule, the fraction remaining at 2 h in data set [1] (after 2 hr) and in data set [2] (after 2 hr) was over 92% each time. Further, the “HEK293 LD50” value in data set [3] was determined as 95.5 ± 12.6 µM. For the same molecule, the “HEPG2 LD50” value in data set [4] was found to be 65.4 ± 7.3 µM.

As for `C#Cc1ccc2c(c1)C(c1ccccc1F)=N[C@@H](C)c1c(C(=O)NC3CC3)ncn1-2` [8c, (S)-N-Cyclopropyl-8-ethynyl-6-(2-fluorophenyl)-4-methyl-4H-benzo[f]imidazo[1,5-a][1,4]diazepine-3-carbox-amide], in data set [1] (setting [6]), the “Microsomal stability (HLM) % remaining” value was 89.0 ± 0.4^d % and the “Microsomal stability (HLM) Half-life” value is recorded as 1625 ± 803^d min. Moreover, in data set [2] (setting [6]), the “Microsomal stability (MLM) % remaining” value was 72.0 ± 0.3^d % and the “Microsomal stability (MLM) Half-life” value was 320 ± 34^d min. The “HEK293 LD50” value in data set [3] is 63.8 ± 3.0 µM. Further, in data set [4], the “HEPG2 LD50” value was 93.5 ± 5.7 µM.
